Paper PMC10975012, “The Active Glucuronide Metabolite of the Brain Protectant IMM-H004 with Poor Blood–Brain Barrier Permeability Demonstrates a High Partition in the Rat Brain via Multiple Mechanisms” (Pharmaceutics, 2024)

Tests used:
[1] = Plasma protein binding, rapid equilibrium dialysis; assay type: in vitro ADME; conditions: rat, 0.5–10 μg/mL, RED, 37 °C, read-out: unbound fraction (fu) in rat plasma
Method: The rat plasma protein binding of IMM-H004 and IMM-H004G (0.5–10 μg/mL) was investigated using a rapid equilibrium dialysis (RED) assay. The RED plate inserts utilized in this assay contained a dialysis membrane with a molecular weight cut-off of 8 kDa (Thermo Fisher Scientific, Waltham, MA, USA). For the assay, aliquots of plasma (0.2 mL) and phosphate-buffered saline (0.35 mL) were added to the sample chamber and buffer chamber, respectively. The plate was then sealed and incubated at 37 °C, 200 rpm for 4 h. Following the dialysis period, the concentrations of IMM-H004 and IMM-H004G were determined using LC-MS/MS. The ratio of the drug concentration in the buffer to that in the plasma chamber was used to calculate the unbound fraction (fu) of the drugs.

[2] = In vivo metabolism of IMM-H004 in rat brain after intracerebroventricular injection; conditions: for detection in brain regions: 6–60 min after icv injection of IMM-H004 3.8 μg/kg
Method: The metabolism of IMM-H004 in the brain was investigated through the intracerebroventricular (icv) injection of IMM-H004 in rats, and the drug concentration in each brain region was analyzed. The rats were fixed on a benchmark stereotactic instrument (Leica Biosystems, Deer Park, IL, USA) under isoflurane anesthesia. Using a microinjector connected to a syringe pump, a 5 μL solution of IMM-H004 was dissolved in artificial cerebrospinal fluid (ACSF) and injected (3.8 μg/kg) into the lateral ventricle. The injection coordinates were as follows: medial/lateral = 1.5 mm; anterior/posterior = −0.8 mm; dorsal/ventral = −4 mm. Animals were sacrificed at 6, 15, 30, 45, and 60 min after drug administration. The brains were collected and dissected on ice into the following regions: the cerebellum, brainstem, hypothalamus, hippocampus, midbrain, striatum, and cortex. The subsequent procedure for processing tissue samples was the same as the procedure described in Section 2.3.1.

[3] = Pharmacokinetics in rats with cerebral microdialysis; assay type: in vivo; conditions: rat; for Kp: brain (cerebral cortex microdialysate) and plasma, read-out: Kp (AUCbrain/AUCplasma); for peak brain concentration: free concentration (microdialysis); for AUCbrain / concentration at 2 min / AUC: free concentration; for concentration at 2 min / AUC: plasma (free concentration); for AUC: read-out: AUCplasma
Method: Rats were anesthetized with isoflurane. Microdialysis intracerebral guide cannulas and CMA 12 Elite Probe (PAES membrane with a MWCO of 20 kDa, 2 mm membrane length (CMA/Microdialysis AB, Stockholm, Sweden)) were implanted into the cerebral cortex at the coordinates relative to bregma: medial/lateral = 3.0 mm; anterior/posterior = 0.5 mm; dorsal/ventral = −3.0 mm. After a 24 h recovery period, the intracerebral probe was connected to the microdialysis cannula, and Ringer’s solution was perfused at a flow rate of 2.0 μL/min. Then, IMM-H004 citrate or IMM-H004G (10 mg/kg) was injected intravenously (iv). Dialysate samples were collected every 5 to 60 min for a duration of 7 h. The probe recovery in vitro was determined by dialyzing a standard mixture of IMM-H004 (50 ng/mL) and IMM-H004G (300 ng/mL) infused with Ringer’s solution.
Blood samples were collected from the orbital plexus into heparinized tubes and subsequently centrifuged to separate the plasma. The concentrations of IMM-H004 and IMM-H004G in both the dialysate and plasma samples were determined using LC-MS/MS analysis. Subsequently, the free concentrations in the brain and plasma were corrected with probe recovery and fu for further analysis, respectively. The pharmacokinetic parameters were calculated via noncompartmental analysis (NCA) using Phoenix WinNonlin 6.3 (Pharsight Corporation, Sunnyvale, CA, USA). The brain–plasma partition coefficient (Kp) was determined as the ratio of the area under the concentration–time curve for the brain (AUCbrain) to that of the plasma (AUCplasma).

[4] = molecular target: T1, P-gp (Homo sapiens, UniProt P08183); assay: Identification of transporters using inhibitors in hCMEC/D3 cells: P-gp; assay type: cell-based; conditions: substrate 10 μmol/L, PSC833 5 μmol/L
T1 construct: host or cells: hCMEC/D3
Method: The toxicity of all compounds, including inhibitors and substrates, toward hCMEC/D3 cells, was assessed using the 3-(4,5-Dimethylthiazol-2-yl)-2,5-diphenyltetrazolium bromide (MTT) reduction assay as described previously. To assess the effects of pyrilamine-sensitive proton-coupled organic cation (H^+/OC) antiporter, organic anion transporter (OAT), organic anion-transporting polypeptides (OATPs), organic cation transporter (OCT), and novel organic cation–carnitine transporter (OCTN) inhibitors on the uptake process, IMM-H004 or IMM-H004G (10 µmol/L) combined with the inhibitors were added to the medium after preincubating the cells with the inhibitors for 30 min. For evaluating the impact of the multidrug and toxin extrusion transporter (MATE), P-glycoprotein (P-gp), multidrug resistance protein (MRP), and breast cancer resistance protein (BCRP) on the uptake, IMM-H004 or IMM-H004G (10 µmol/L) was preincubated with the cells for 2 h before the addition of the inhibitors. After removing the supernatant, the cells were washed twice with prewarmed HBSS and incubated with fresh HBSS for 20 min. At the end of incubation, the supernatants were collected. […] The protein content of the lysed cells was determined using a bicinchoninic acid (BCA) assay kit (Beyotime Inc., Shanghai, China). The results were expressed as a percentage of the vehicle control.

[5] = test system: hCMEC/D3 cells; assay: Uptake kinetics in hCMEC/D3 cells; assay type: cell-based, human; conditions: for reduction of uptake at 4 °C compared to 37 °C: 10 μmol/L; for reduction of uptake at 4 °C compared to 37 °C / Kns, passive diffusion rate / Vmax/Km ratio, transporter-mediated uptake: 10 min; for Kns, passive diffusion rate / Vmax/Km ratio, transporter-mediated uptake: 2–400 μmol/L
Method: (§1) Uptake assays into hCMEC/D3 cells were conducted in 24-well plates. All incubations were carried out at 37 °C in triplicate unless otherwise noted. In time-dependent uptake studies, hCMEC/D3 cells were incubated with IMM-H004 (10 µmol/L) and IMM-H004G (50 µmol/L) dissolved in HBSS under gentle shaking for up to 30 min. To investigate the impact of incubation temperature on the uptake of IMM-H004 and IMM-H004G by hCMEC/D3 cells, incubation was performed at 4 or 37 °C for 10 min. To determine the kinetic parameters, the cells were incubated with IMM-H004 and IMM-H004G (2–400 µmol/L) for 10 min. The uptake data were fitted to the following equation using nonlinear least-square regression analysis in GraphPad Prism 9 (GraphPad, San Diego, CA, USA):(1) V=Vmax×S/Km+S+Kns×S where V is the uptake velocity (nmol/mg protein/min), and S is the initial concentration (μmol/L). Vmax, Km, and Kns represent the maximum uptake velocity (nmol/mg protein/min), the Michaelis–Menten constant (μmol/L), and nonsaturable uptake clearance (μL/mg protein/min), respectively. The saturable uptake of both IMM-H004 and IMM-H004G was plotted with the Eadie–Hofstee method by subtracting passive uptake from the total uptake.

[6] = Uptake kinetics in hCMEC/D3 cells; assay type: cell-based, human; conditions: human, hCMEC/D3 cells, 2–400 μmol/L, 10 min
Method: as §1

[7] = after iv IMM-H004 citrate 10 mg/kg

T1 sequence (P08183 whole entry): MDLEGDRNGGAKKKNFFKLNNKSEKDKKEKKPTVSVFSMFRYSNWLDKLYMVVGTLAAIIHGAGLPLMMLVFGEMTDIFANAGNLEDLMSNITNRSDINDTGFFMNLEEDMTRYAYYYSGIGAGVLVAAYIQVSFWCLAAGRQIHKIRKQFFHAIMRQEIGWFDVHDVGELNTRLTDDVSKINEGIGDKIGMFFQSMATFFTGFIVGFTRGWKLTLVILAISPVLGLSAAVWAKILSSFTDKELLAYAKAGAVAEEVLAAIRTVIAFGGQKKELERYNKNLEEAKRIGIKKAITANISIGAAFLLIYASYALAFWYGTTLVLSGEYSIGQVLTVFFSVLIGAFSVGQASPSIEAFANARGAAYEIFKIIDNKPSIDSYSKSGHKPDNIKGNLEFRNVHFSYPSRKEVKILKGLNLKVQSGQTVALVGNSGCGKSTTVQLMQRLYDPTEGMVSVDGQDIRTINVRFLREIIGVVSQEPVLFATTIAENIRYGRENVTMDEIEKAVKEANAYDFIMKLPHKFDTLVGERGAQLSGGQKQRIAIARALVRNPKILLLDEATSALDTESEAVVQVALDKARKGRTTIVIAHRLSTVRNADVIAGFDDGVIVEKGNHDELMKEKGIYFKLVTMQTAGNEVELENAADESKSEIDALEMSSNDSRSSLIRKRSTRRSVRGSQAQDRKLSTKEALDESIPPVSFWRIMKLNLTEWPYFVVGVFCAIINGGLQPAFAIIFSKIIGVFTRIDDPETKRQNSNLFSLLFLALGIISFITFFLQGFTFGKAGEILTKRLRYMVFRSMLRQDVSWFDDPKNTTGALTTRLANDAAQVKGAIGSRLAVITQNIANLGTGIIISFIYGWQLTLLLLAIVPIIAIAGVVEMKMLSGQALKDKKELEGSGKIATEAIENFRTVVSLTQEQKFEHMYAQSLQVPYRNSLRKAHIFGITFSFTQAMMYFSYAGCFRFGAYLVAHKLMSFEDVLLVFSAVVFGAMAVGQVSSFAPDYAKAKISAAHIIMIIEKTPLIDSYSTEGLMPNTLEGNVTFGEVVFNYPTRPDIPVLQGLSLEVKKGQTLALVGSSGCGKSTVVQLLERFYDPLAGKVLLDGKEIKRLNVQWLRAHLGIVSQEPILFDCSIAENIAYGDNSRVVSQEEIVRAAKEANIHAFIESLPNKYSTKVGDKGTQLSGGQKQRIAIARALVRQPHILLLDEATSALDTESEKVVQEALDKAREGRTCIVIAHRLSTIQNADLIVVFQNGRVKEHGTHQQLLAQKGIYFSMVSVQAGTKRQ

| fraction unbound at 4 h [1] | Kp ([2]; hypothalamus and plasma, icv or intrathecal, 3.8 ug/kg, after icv injection of IMM-H004 3.8 μg/kg, read-out: hypothalamus-to-plasma AUC ratio) | AUCbrain relative to that of IMM-H004 [3, 7] [times] | AUCplasma relative to that of IMM-H004 [3, 7] [times] | Kp [3, 7] | peak brain concentration ([3]; after iv IMM-H004G 10 mg/kg) [nmol/L] | AUCbrain ([3]; after iv IMM-H004G 10 mg/kg) [µM·h] | AUCbrain [3, 7] [µM·h] | concentration at 2 min ([3]; after iv IMM-H004G 10 mg/kg) [µM] | AUC [3, 7] [µM·h] | uptake with P-gp inhibitor PSC833 relative to control [4] | reduction of uptake at 4 °C compared to 37 °C [5] [%] | Kns, passive diffusion rate [5] [μL/min/mg protein] | Vmax/Km ratio, transporter-mediated uptake [5] [μL/min/mg protein] | Km at 10 min [6] [µM] | Kns relative to that of IMM-H004G [5] [times] | Structure (SMILES) | detection in brain regions [2] |
| --- | --- | --- | --- | --- | --- | --- | --- | --- | --- | --- | --- | --- | --- | --- | --- | --- | --- |
| 0.315 ± 0.008 | 3.13 | 5.4 | 116 | 0.06 | 1712 | 1.923 | 1.053 | 40.2 | 16.4 | without affecting | 70.6 | 0.100 | 1.50 | 10.7 | – | COc1cc(OC2OC(C(=O)O)C(O)C(O)C2O)cc2oc(=O)c(N3CCN(C)CC3)c(C)c12 (stereo not drawn) [IMM-H004G] | only detected at lower concentrations in the hypothalamus |
| 0.025 ± 0.002 | – | – | – | 1.39 | 35.1 | 0.0938 | 0.196 | 0.0398 | 0.141 | 1.3 times that of the control | 57.1 | 0.877 | 18.8 | 89.5 | 8.77 | COc1cc(O)cc2oc(=O)c(N3CCN(C)CC3)c(C)c12 [IMM-H004] | detected in all brain regions |
